Results: the supplement of paper PMC10307832

What was measured:
Test in all cases: relative viability (nuclei count vs DMSO), 5 days (fraction); higher = more cells survive
Bosutinib + Tozasertib = compound: COc1cc(Nc2c(C#N)cnc3cc(OCCCN4CCN(C)CC4)c(OC)cc23)c(Cl)cc1Cl [Bosutinib] + Cc1cc(Nc2cc(N3CCN(C)CC3)nc(Sc3ccc(NC(=O)C4CC4)cc3)n2)n[nH]1 [Tozasertib] (partner 0.1 µM)
Method in brief: (§1)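 Nuclei were stained with Hoechst during a one-step fixation (final 0.05% Triton X-100, 1% formaldehyde, 1 ug/ml Hoechst) carried out 5 days after dosing, then counted on 4× images. The cells, lung cancer lines in 1536-well plates, had been dosed by pin tool the day after seeding with one drug alone or a fixed anchor-drug dose plus five library-drug doses (not always all listed) in √10 steps. Relative viability is the nuclei count in treated wells divided by that in vehicle wells, and each value is the median of duplicate plates.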

Bosutinib + Navitoclax = compound: COc1cc(Nc2c(C#N)cnc3cc(OCCCN4CCN(C)CC4)c(OC)cc23)c(Cl)cc1Cl [Bosutinib] + CC1(C)CCC(c2ccc(Cl)cc2)=C(CN2CCN(c3ccc(C(=O)NS(=O)(=O)c4ccc(N[C@H](CCN5CCOCC5)CSc5ccccc5)c(S(=O)(=O)C(F)(F)F)c4)cc3)CC2)C1 [Navitoclax] (partner 0.5 µM)
Method in brief: as §1

Bosutinib + OSI-027 = compound: COc1cc(Nc2c(C#N)cnc3cc(OCCCN4CCN(C)CC4)c(OC)cc23)c(Cl)cc1Cl [Bosutinib] + COc1cccc2cc(-c3nc([C@H]4CC[C@H](C(=O)O)CC4)n4ncnc(N)c34)[nH]c12 [OSI-027] (partner 0.5 µM)
Method in brief: as §1

Bosutinib + Foretinib = compound: COc1cc(Nc2c(C#N)cnc3cc(OCCCN4CCN(C)CC4)c(OC)cc23)c(Cl)cc1Cl [Bosutinib] + COc1cc2c(Oc3ccc(NC(=O)C4(C(=O)Nc5ccc(F)cc5)CC4)cc3F)ccnc2cc1OCCCN1CCOCC1 [Foretinib] (partner 0.25 µM)
Method in brief: as §1

Bosutinib + Pemetrexed = compound: COc1cc(Nc2c(C#N)cnc3cc(OCCCN4CCN(C)CC4)c(OC)cc23)c(Cl)cc1Cl [Bosutinib] + Nc1nc2[nH]cc(CCc3ccc(C(=O)N[C@@H](CCC(=O)O)C(=O)O)cc3)c2c(=O)[nH]1 [Pemetrexed] (partner 0.2 µM)
Method in brief: as §1

Cell Line	relative viability (Bosutinib + Tozasertib; first compound 0.01 µM)	relative viability (Bosutinib + Tozasertib; first compound 0.03162 µM)	relative viability (Bosutinib + Tozasertib; first compound 0.1 µM)	relative viability (Bosutinib + Tozasertib; first compound 1 µM)	relative viability (Bosutinib + Navitoclax; first compound 0.01 µM)	relative viability (Bosutinib + Navitoclax; first compound 0.03162 µM)	relative viability (Bosutinib + Navitoclax; first compound 0.1 µM)	relative viability (Bosutinib + Navitoclax; first compound 1 µM)	relative viability (Bosutinib + OSI-027; first compound 0.01 µM)	relative viability (Bosutinib + OSI-027; first compound 0.03162 µM)	relative viability (Bosutinib + OSI-027; first compound 0.1 µM)	relative viability (Bosutinib + OSI-027; first compound 1 µM)	relative viability (Bosutinib + Foretinib; first compound 0.01 µM)	relative viability (Bosutinib + Foretinib; first compound 0.03162 µM)	relative viability (Bosutinib + Foretinib; first compound 0.1 µM)	relative viability (Bosutinib + Foretinib; first compound 1 µM)	relative viability (Bosutinib + Pemetrexed; first compound 0.01 µM)	relative viability (Bosutinib + Pemetrexed; first compound 0.03162 µM)	relative viability (Bosutinib + Pemetrexed; first compound 0.1 µM)	relative viability (Bosutinib + Pemetrexed; first compound 1 µM)
NCI-H647	0.38	0.203	0.389	0.201	1.25	1.23	1.09	0.82	0.661	0.741	0.724	0.496	1.28	1.17	1.31	0.778	0.221	0.179	0.162	0.171
NCI-H838	0.306	0.294	0.263	0.215	1.14	1.14	1.07	0.637	0.43	0.45	0.361	0.317	1.08	1.02	0.989	0.598	0.268	0.229	0.246	0.253
NCI-H1355	0.549	0.603	0.524	0.475	0.996	0.925	0.96	0.814	0.412	0.466	0.465	0.381	0.956	0.973	1.01	0.917	1.05	0.975	1.06	1.05
NCI-H1395	0.758	0.727	0.718	0.66	1.45	1.01	1.34	1.12	0.679	0.662	0.771	0.629	0.947	0.921	0.996	0.947	0.964	0.966	0.958	0.926
NCI-H1437	0.401	0.426	0.407	0.344	1.13	1.11	1.01	0.918	0.887	0.878	0.938	0.886	1.23	1.2	1.14	1.1	0.317	0.377	0.311	0.29
NCI-H1650	0.344	0.407	0.36	0.295	1.46	1.06	1.18	0.754	0.734	0.6	0.444	0.41	0.917	1.09	0.862	0.599	0.304	0.366	0.404	0.301
NCI-H1651	0.586	0.742	0.612	0.624	1	1.17	0.88	0.961	0.678	0.793	0.709	0.657	0.75	0.737	0.909	0.8	0.529	0.678	0.643	0.569
NCI-H1666	0.57	0.626	0.629	0.662	1	1.01	0.889	0.892	0.773	0.811	0.821	1.03	1.04	0.936	0.976	0.921	0.827	0.888	0.833	0.912
